Starred links: 1 amine or outer side, 2 acyl side, 3 side chain; linkers in the order of their positions; H or OH if unused. Non-standard residues stand in square brackets, D forms with d. Residues, ends and D or L forms follow the SMILES beside them. Groups on a side chain read outwards from the residue. *: point of attachment. C18 diacid = O=C(O)CCCCCCCCCCCCCCCCC(=O)*; γGlu = O=C(O)[C@H](CCC(=O)[*:2])N[*:1]; αMeF = C[C@](N)(Cc1ccccc1)C(=O)O; AEEA = NCCOCCOCC(=O)O; Aib = CC(C)(N)C(=O)O
Assays:
[1] = molecular target: human glucagon receptor (hGCGR) (Homo sapiens, UniProt P47871); test: cAMP production (HTRF) in CHO cells expressing hGCGR; format: cell-based; set-up: expressed in transfected cells; details: Table 6, peptides modified at position 17; cAMP in CHO hGCGR cells; geometric mean; read-out: hGluc-R EC50
Chain of human glucagon receptor (hGCGR) (P47871 26-477): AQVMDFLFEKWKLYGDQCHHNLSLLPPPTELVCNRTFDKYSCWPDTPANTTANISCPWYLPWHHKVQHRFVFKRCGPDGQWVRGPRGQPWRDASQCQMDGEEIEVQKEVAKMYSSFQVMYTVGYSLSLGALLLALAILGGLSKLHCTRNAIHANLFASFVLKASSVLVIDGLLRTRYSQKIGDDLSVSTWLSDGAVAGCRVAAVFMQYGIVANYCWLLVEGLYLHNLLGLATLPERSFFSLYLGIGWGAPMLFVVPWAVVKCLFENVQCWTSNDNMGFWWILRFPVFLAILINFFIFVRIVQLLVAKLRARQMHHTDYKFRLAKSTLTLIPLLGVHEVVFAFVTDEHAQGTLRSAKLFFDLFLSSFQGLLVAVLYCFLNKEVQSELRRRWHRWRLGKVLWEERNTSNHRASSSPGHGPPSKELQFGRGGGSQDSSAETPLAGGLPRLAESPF
Summary of the method: (§1)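 Read-out: HTRF cAMP (anti-cAMP cryptate donor, cAMP-d2 acceptor in conjugate/lysis buffer), converted to % Delta F and fitted by 4-parameter logistic for EC50. Cell densities were 1×10^5 cells/mL (hGLP-1R) or 2×10^5 cells/mL (hGCGR). Stimulation lasted 30 min at room temperature.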

[2] = molecular target: human GLP-1 receptor (hGLP-1R) (Homo sapiens, UniProt P43220); test: cAMP production (HTRF) in CHO cells expressing hGLP-1R; format: cell-based; set-up: expressed in transfected cells; details: for EC50: Table 6, peptides modified at position 17, cAMP in CHO hGLP-1R cells, geometric mean, read-out: hGLP-1R EC50; for % Relative Potency Ratio: Table 6, % GLP-1R activity relative to GLP-1 / % GlucR activity relative to glucagon
Chain of human GLP-1 receptor (hGLP-1R) (P43220 24-463): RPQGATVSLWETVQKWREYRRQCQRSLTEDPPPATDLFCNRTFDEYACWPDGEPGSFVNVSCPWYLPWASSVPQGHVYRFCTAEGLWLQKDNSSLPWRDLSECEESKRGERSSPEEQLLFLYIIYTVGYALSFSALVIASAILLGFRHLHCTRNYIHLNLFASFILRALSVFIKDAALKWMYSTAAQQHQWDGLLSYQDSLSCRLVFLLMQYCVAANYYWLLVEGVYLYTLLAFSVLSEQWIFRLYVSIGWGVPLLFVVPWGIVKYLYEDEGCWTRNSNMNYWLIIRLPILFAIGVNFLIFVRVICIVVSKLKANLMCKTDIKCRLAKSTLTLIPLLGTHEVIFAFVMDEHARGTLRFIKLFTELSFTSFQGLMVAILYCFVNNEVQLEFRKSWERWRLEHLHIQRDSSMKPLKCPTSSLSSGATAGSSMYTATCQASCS
Summary of the method: as §1

Row | Structure (SMILES) | EC50 [1] [nM] | EC50 [2] [nM] | % Relative Potency Ratio [2]
1 | CC(C)C[C@H](NC(=O)[C@H](Cc1c[nH]c2ccccc12)NC(=O)[C@H](CCCNC(=N)N)NC(=O)[C@@H](NC(=O)[C@H](Cc1ccccc1)NC(=O)[C@H](CC(=O)O)NC(=O)[C@H](CCC(N)=O)NC(=O)[C@H](C)NC(=O)[C@H](CCCNC(=N)N)NC(=O)[C@H](CCCCNC(=O)COCCOCCNC(=O)COCCOCCNC(=O)CC[C@H](NC(=O)CCCCCCCCCCCCCCCCC(=O)O)C(=O)O)NC(=O)[C@H](CO)NC(=O)[C@H](CCC(=O)O)NC(=O)[C@H](CC(C)C)NC(=O)[C@](C)(Cc1ccccc1)NC(=O)[C@H](CCCCN)NC(=O)[C@H](CO)NC(=O)[C@@H](NC(=O)[C@H](CC(=O)O)NC(=O)[C@H](CO)NC(=O)[C@@H](NC(=O)[C@H](Cc1ccccc1)NC(=O)[C@@H](NC(=O)CNC(=O)[C@H](CCC(N)=O)NC(=O)C(C)(C)NC(=O)[C@@H](N)Cc1c[nH]cn1)[C@@H](C)O)[C@@H](C)O)C(C)C)C(C)C)C(=O)N[C@@H](CC(C)C)C(=O)NC(C)(C)C(=O)N[C@H](C(=O)N[C@@H](CCC(=O)O)C(=O)O)[C@@H](C)O [Peptide 172] (H-H[Aib]QGTFTSDVSK[αMeF]LESK([AEEA-AEEA-γGlu-C18 diacid])RAQDFVRWLL[Aib]TE-OH; N-terminus assumed) | 1.27 | 0.213 | 11.8
2 | CC(C)C[C@H](NC(=O)[C@H](Cc1c[nH]c2ccccc12)NC(=O)[C@H](CCCNC(=N)N)NC(=O)[C@@H](NC(=O)[C@H](Cc1ccccc1)NC(=O)[C@H](CC(=O)O)NC(=O)[C@H](CCC(N)=O)NC(=O)[C@H](C)NC(=O)[C@H](CCCNC(=N)N)NC(=O)[C@H](CCCCNC(=O)COCCOCCNC(=O)COCCOCCNC(=O)CC[C@H](NC(=O)CCCCCCCCCCCCCCCCC(=O)O)C(=O)O)NC(=O)[C@H](CO)NC(=O)[C@H](CC(=O)O)NC(=O)[C@H](CC(C)C)NC(=O)[C@](C)(Cc1ccccc1)NC(=O)[C@H](CCCCN)NC(=O)[C@H](CO)NC(=O)[C@@H](NC(=O)[C@H](CC(=O)O)NC(=O)[C@H](CO)NC(=O)[C@@H](NC(=O)[C@H](Cc1ccccc1)NC(=O)[C@@H](NC(=O)CNC(=O)[C@H](CCC(N)=O)NC(=O)C(C)(C)NC(=O)[C@@H](N)Cc1c[nH]cn1)[C@@H](C)O)[C@@H](C)O)C(C)C)C(C)C)C(=O)N[C@@H](C)C(=O)NC(C)(C)C(=O)N[C@H](C(=O)N[C@@H](CCC(=O)O)C(=O)O)[C@@H](C)O [Peptide 175] (H-H[Aib]QGTFTSDVSK[αMeF]LDSK([AEEA-AEEA-γGlu-C18 diacid])RAQDFVRWLA[Aib]TE-OH) | 2.02 | 0.0684 | 58.4
3 | CC(C)C[C@H](NC(=O)[C@H](CC(C)C)NC(=O)[C@H](Cc1c[nH]c2ccccc12)NC(=O)[C@H](CCCNC(=N)N)NC(=O)[C@@H](NC(=O)[C@H](Cc1ccccc1)NC(=O)[C@H](CC(=O)O)NC(=O)[C@H](CCC(N)=O)NC(=O)[C@H](C)NC(=O)[C@H](CCCNC(=N)N)NC(=O)[C@H](CCCCNC(=O)COCCOCCNC(=O)COCCOCCNC(=O)CC[C@H](NC(=O)CCCCCCCCCCCCCCCCC(=O)O)C(=O)O)NC(=O)[C@H](CO)NC(=O)[C@H](CC(=O)O)NC(=O)[C@H](CC(C)C)NC(=O)[C@](C)(Cc1ccccc1)NC(=O)[C@H](CCCCN)NC(=O)[C@H](CO)NC(=O)[C@@H](NC(=O)[C@H](CC(=O)O)NC(=O)[C@H](CO)NC(=O)[C@@H](NC(=O)[C@H](Cc1ccccc1)NC(=O)[C@@H](NC(=O)CNC(=O)[C@H](CCC(N)=O)NC(=O)C(C)(C)NC(=O)[C@@H](N)Cc1c[nH]cn1)[C@@H](C)O)[C@@H](C)O)C(C)C)C(C)C)C(=O)N[C@@H](CCC(=O)O)C(=O)N[C@@H](C)C(=O)NCC(=O)O [Peptide 179] (H-H[Aib]QGTFTSDVSK[αMeF]LDSK([AEEA-AEEA-γGlu-C18 diacid])RAQDFVRWLLEAG-OH; N-terminus assumed) | 0.203 | 0.131 | 3.1

More lines, now with the values ahead:

Row | EC50 [1] [nM] | EC50 [2] [nM] | % Relative Potency Ratio [2] | Structure (SMILES)
4 | 0.874 | 0.134 | 12.9 | CC(C)C[C@H](NC(=O)[C@H](Cc1c[nH]c2ccccc12)NC(=O)[C@H](CCCNC(=N)N)NC(=O)[C@@H](NC(=O)[C@H](Cc1ccccc1)NC(=O)[C@H](CC(=O)O)NC(=O)[C@H](CCC(N)=O)NC(=O)[C@H](C)NC(=O)[C@H](CCCNC(=N)N)NC(=O)[C@H](CCCCNC(=O)COCCOCCNC(=O)COCCOCCNC(=O)CC[C@H](NC(=O)CCCCCCCCCCCCCCCCC(=O)O)C(=O)O)NC(=O)[C@H](CO)NC(=O)[C@H](CCC(=O)O)NC(=O)[C@H](CC(C)C)NC(=O)[C@](C)(Cc1ccccc1)NC(=O)[C@H](CCCCN)NC(=O)[C@H](CO)NC(=O)[C@@H](NC(=O)[C@H](CC(=O)O)NC(=O)[C@H](CO)NC(=O)[C@@H](NC(=O)[C@H](Cc1ccccc1)NC(=O)[C@@H](NC(=O)CNC(=O)[C@H](CCC(N)=O)NC(=O)C(C)(C)NC(=O)[C@@H](N)Cc1c[nH]cn1)[C@@H](C)O)[C@@H](C)O)C(C)C)C(C)C)C(=O)N[C@@H](CC(C)C)C(=O)NC(C)(C)C(=O)N[C@@H](CCC(=O)O)C(=O)O [Peptide 173] (H-H[Aib]QGTFTSDVSK[αMeF]LESK([AEEA-AEEA-γGlu-C18 diacid])RAQDFVRWLL[Aib]E-OH; N-terminus assumed)
5 | 0.42 | 0.127 | 6.5 | CC(C)C[C@H](NC(=O)[C@H](Cc1c[nH]c2ccccc12)NC(=O)[C@H](CCCNC(=N)N)NC(=O)[C@@H](NC(=O)[C@H](Cc1ccccc1)NC(=O)[C@H](CC(=O)O)NC(=O)[C@H](CCC(N)=O)NC(=O)[C@H](C)NC(=O)[C@H](CCCNC(=N)N)NC(=O)[C@H](CCCCNC(=O)COCCOCCNC(=O)COCCOCCNC(=O)CC[C@H](NC(=O)CCCCCCCCCCCCCCCCC(=O)O)C(=O)O)NC(=O)[C@@H](NC(=O)[C@H](CC(=O)O)NC(=O)[C@H](CC(C)C)NC(=O)[C@](C)(Cc1ccccc1)NC(=O)[C@H](CCCCN)NC(=O)[C@H](CO)NC(=O)[C@@H](NC(=O)[C@H](CC(=O)O)NC(=O)[C@H](CO)NC(=O)[C@@H](NC(=O)[C@H](Cc1ccccc1)NC(=O)[C@@H](NC(=O)CNC(=O)[C@H](CCC(N)=O)NC(=O)C(C)(C)NC(=O)[C@@H](N)Cc1c[nH]cn1)[C@@H](C)O)[C@@H](C)O)C(C)C)[C@@H](C)O)C(C)C)C(=O)N[C@@H](CC(C)C)C(=O)NC(C)(C)C(=O)N[C@H](C(=O)N[C@@H](CCC(=O)O)C(=O)O)[C@@H](C)O [Peptide 174] (H-H[Aib]QGTFTSDVSK[αMeF]LDTK([AEEA-AEEA-γGlu-C18 diacid])RAQDFVRWLL[Aib]TE-OH; N-terminus assumed)
6 | 0.48 | 0.0599 | 15.9 | CC(C)C[C@H](NC(=O)[C@H](Cc1c[nH]c2ccccc12)NC(=O)[C@H](CCCNC(=N)N)NC(=O)[C@@H](NC(=O)[C@H](Cc1ccccc1)NC(=O)[C@H](CC(=O)O)NC(=O)[C@H](CCC(N)=O)NC(=O)[C@H](C)NC(=O)[C@H](CCCNC(=N)N)NC(=O)[C@H](CCCCNC(=O)COCCOCCNC(=O)COCCOCCNC(=O)CC[C@H](NC(=O)CCCCCCCCCCCCCCCCC(=O)O)C(=O)O)NC(=O)[C@H](CO)NC(=O)[C@H](CC(=O)O)NC(=O)[C@H](CC(C)C)NC(=O)[C@](C)(Cc1ccccc1)NC(=O)[C@H](CCCCN)NC(=O)[C@H](CO)NC(=O)[C@@H](NC(=O)[C@H](CC(=O)O)NC(=O)[C@H](CO)NC(=O)[C@@H](NC(=O)[C@H](Cc1ccccc1)NC(=O)[C@@H](NC(=O)CNC(=O)[C@H](CCC(N)=O)NC(=O)C(C)(C)NC(=O)[C@@H](N)Cc1c[nH]cn1)[C@@H](C)O)[C@@H](C)O)C(C)C)C(C)C)C(=O)N[C@@H](CC(C)C)C(=O)NC(C)(C)C(=O)N[C@H](C(=O)N[C@@H](C)C(=O)O)[C@@H](C)O [Peptide 176] (H-H[Aib]QGTFTSDVSK[αMeF]LDSK([AEEA-AEEA-γGlu-C18 diacid])RAQDFVRWLL[Aib]TA-OH; N-terminus assumed)
7 | 0.104 | 0.0518 | 4.0 | CC(C)C[C@H](NC(=O)[C@H](Cc1c[nH]c2ccccc12)NC(=O)[C@H](CCCNC(=N)N)NC(=O)[C@@H](NC(=O)[C@H](Cc1ccccc1)NC(=O)[C@H](CC(=O)O)NC(=O)[C@H](CCC(N)=O)NC(=O)[C@H](C)NC(=O)[C@H](CCCNC(=N)N)NC(=O)[C@H](CCCCNC(=O)COCCOCCNC(=O)COCCOCCNC(=O)CC[C@H](NC(=O)CCCCCCCCCCCCCCCCC(=O)O)C(=O)O)NC(=O)[C@H](CCCCN)NC(=O)[C@H](CC(=O)O)NC(=O)[C@H](CC(C)C)NC(=O)[C@](C)(Cc1ccccc1)NC(=O)[C@H](CCCCN)NC(=O)[C@H](CO)NC(=O)[C@@H](NC(=O)[C@H](CC(=O)O)NC(=O)[C@H](CO)NC(=O)[C@@H](NC(=O)[C@H](Cc1ccccc1)NC(=O)[C@@H](NC(=O)CNC(=O)[C@H](CCC(N)=O)NC(=O)C(C)(C)NC(=O)[C@@H](N)Cc1c[nH]cn1)[C@@H](C)O)[C@@H](C)O)C(C)C)C(C)C)C(=O)N[C@@H](CC(C)C)C(=O)NC(C)(C)C(=O)N[C@H](C(=O)N[C@@H](CCC(=O)O)C(=O)O)[C@@H](C)O [Peptide 178]

Source: patent publication US20250353891A1 (MEDIMMUNE LIMITED, priority 2022, published 2025)
